From ChEMBL document CHEMBL5360542, “Current development of β-carboline derived potential antimalarial scaffolds” (Eur J Med Chem, 2023) come the findings set out here.

≈ marks a conversion by molar mass, not a printed value.

Series [1] concerns Plasmodium falciparum. Put plainly: Antimalarial activity against artemisinin-sensitive parental Plasmodium falciparum 3D7 infected in O positive erythrocytes assessed as reduction in parasite growth incubated for 48 hrs by giemsa staining based assay. It is filed as functional, organism-based. Conditions: 3D7, Erythrocyte.
Series [2] relates to Plasmodium falciparum. Put plainly: Antimalarial activity against artemisinin-resistant Plasmodium falciparum R539T infected in O positive erythrocytes assessed as reduction in parasite growth incubated for 48 hrs by giemsa staining based assay. The series is classed as functional, organism-based. Conditions: Erythrocyte.
The subject of series [3] is Plasmodium falciparum. As to the kind of experiment: Antimalarial activity against chloroquine-sensitive Plasmodium falciparum 3D7 transfected in A positive human erythrocytes assessed as reduction in schizont maturation incubated for 48 hrs by giemsa stain based assay. It is filed as functional, organism-based. Conditions: 3D7, 48 h.
Series [4] deals with Plasmodium falciparum. As to the kind of experiment: Antimalarial activity against chloroquine-resistant Plasmodium falciparum RKL-9 transfected in A positive human erythrocytes assessed as reduction in schizont maturation incubated for 48 hrs by giemsa stain based assay. The series is classed as functional, organism-based. Conditions: RKL-9, 48 h.
Series [5] can be described thus: Selectivity index, ratio of IC50 for chloroquine-resistant Plasmodium falciparum RKL-9 transfected in A positive human erythrocytes to IC50 for chloroquine-sensitive Plasmodium falciparum 3D7 transfected in A positive human erythrocytes. It is filed as functional.
The nature of series [6]: Cytotoxicity against human dermal fibroblast cultured as 2D cells assessed as inhibition of cell growth incubated for 48 hrs by MTT assay. The series is classed as toxicity, cell-based. Conditions: human dermal fibroblasts cultured as 2D cells. In general terms: Tetrazolium assays rely on reduction of a dye to a coloured formazan, in cell work by metabolically active cells.

In series [7] the test system is Plasmodium berghei. Put plainly: Antiplasmodial activity against Plasmodium berghei NK-65 infected in Swiss albino mouse assessed as reduction of parasitaemia at 100 mg/kg, po administered once daily for 4 days followed by artesunate addition at 50 mg/kg for 60 mins and measured 24 hrs post last dose by giemsa staining based analysis relative to control. It is filed as functional. Set-up: scale not given: the % may be the effect or the level left. Conditions: time 5 day.

In series [8] the test system is Plasmodium berghei. Put plainly: Antiplasmodial activity against Plasmodium berghei NK-65 infected in Swiss albino mouse assessed as mean survival time of mouse at 100 mg/kg, po administered once daily for 4 days followed by artesunate addition at 50 mg/kg for 60 mins and measured 24 hrs post last dose by giemsa staining based analysis. It is filed as functional. Conditions: time 5 day.

For series [9], the system named is Plasmodium falciparum. As to the kind of experiment: Antimalarial activity against chloroquine-sensitive Plasmodium falciparum […] assessed as reduction in parasite growth. It is filed as functional, organism-based.
In series [10] the test system is Plasmodium falciparum. Put plainly: Antimalarial activity against chloroquine-resistant Plasmodium falciparum FcB1 assessed as inhibition of parasite growth. The series is classed as functional, organism-based.
For series [11], the system named is Plasmodium falciparum. As to the kind of experiment: Antimalarial activity against chloroquine-sensitive Plasmodium falciparum 3D7 by SYBR green assay. The series is classed as functional, organism-based.
In series [12] the test system is Plasmodium falciparum. As to the kind of experiment: Antimalarial activity against chloroquine-resistant Plasmodium falciparum K1. It is filed as functional, organism-based.
The test system of series [13] is Plasmodium falciparum. As to the kind of experiment: Antimalarial activity against chloroquine-resistant Plasmodium falciparum K1 assessed as reduction in parasite growth incubated for 72 hrs by ELISA. The note with it: K1, 72 h. The series is classed as functional, organism-based.
Series [14] relates to Plasmodium falciparum. Put plainly: Antimalarial activity against Plasmodium falciparum NF54 infected in human erythrocytes assessed as reduction in parasitemia incubated for 48 hrs by [3H]-hypoxanthine based liquid scintillation counting analysis. Conditions: NF54, Erythrocyte.

For orientation: IC50 means the concentration at which inhibition is half-maximal. For the compound `COc1ccc(C2NCCc3c2[nH]c2ccccc32)cc1OC` (stereo unspecified), the half-maximal inhibitory concentration (IC50) was 3.03 µM in the series on Plasmodium falciparum [1] and 2.99 µM with Plasmodium falciparum [2].

The term CC50 denotes the concentration at which the toxic effect on the cells reaches its halfway point. With `COC(=O)[C@@H]1Cc2c([nH]c3ccccc23)[C@@H](c2ccc3c(c2)OCO3)N1`, the IC50 with Plasmodium falciparum [3] and in the series with Plasmodium falciparum [4] was less than 1 µg/mL each time. Besides, the “Selectivity Index” value in [5] was more than 10. In series [6], the CC50 at 48 h was more than 640 µg/mL. For the same compound, the Activity in the series on Plasmodium berghei [7] stood at 99.69%. For the same compound, the Survival with Plasmodium berghei [8] is 25.8 days.

As for `O=C(O)CCc1nccc2c1[nH]c1ccccc12`, the IC50 with Plasmodium falciparum [9] worked out at 0.0767 µg/mL (≈ 0.319 µM).

In the case of `O=C(O)c1cc2c([nH]c3ccccc32)c(-c2c[nH]c3ccccc23)n1`, in the series on Plasmodium falciparum [10], the IC50 is more than 31 µM.

Regarding `O=C(c1c[nH]c2ccc(O)cc12)c1nccc2c1[nH]c1ccc(O[C@@H]3O[C@H](CO)[C@@H](O)[C@H](O)[C@H]3O)cc12`, in the series with Plasmodium falciparum [11], the IC50 stood at 5 µM.

In the series on Plasmodium falciparum [12], `C/C=C/C(=O)N1CCc2c(n(C(=O)OC(C)(C)C)c3ccccc23)C1CC(=O)OCC` (stereo unspecified) gave an IC50 of 15 µM.

Consider `CC(C)(C)OC(=O)n1cc(CC2NCCc3c2[nH]c2ccccc32)c2ccccc21` (stereo unspecified), for which the IC50 in the series with Plasmodium falciparum [10] is 8.5 µM.

Consider `C/C=C/C(=O)N1CCc2c([nH]c3ccccc23)C1CC(=O)OCC` (stereo unspecified), for which the IC50 in the series on Plasmodium falciparum [13] worked out at 13.8 µM.

With `Clc1cc(Cl)c(Cl)c(C2NCCc3c2[nH]c2ccccc32)c1` (stereo unspecified), the IC50 worked out at 3.43 µM in the series with Plasmodium falciparum [1] and 4.89 µM in the series with Plasmodium falciparum [2].

The compound `CON(C)C(=O)CC1c2c(c3ccccc3n2C(=O)OC(C)(C)C)CCN1C(=O)OCc1ccccc1` (stereo unspecified) had an IC50 in the series on Plasmodium falciparum [12] of 13.8 µM.

`c1ccc2c(CC3NCCc4c3[nH]c3ccccc43)c[nH]c2c1` (stereo unspecified): the IC50 in the series with Plasmodium falciparum [10] was found to be 9.6 µM.

Take `CC#CCN1CCc2c([nH]c3ccccc23)C1CC(=O)OCC` (stereo unspecified): the IC50 in the series on Plasmodium falciparum [13] is 13.8 µM.

Turning to `CCOC(=O)CC1c2c(c3ccccc3n2C(=O)OC(C)(C)C)CCN1C(=O)OCc1ccccc1` (stereo unspecified), the IC50 in the series with Plasmodium falciparum [13] is 15.5 µM.

Take `CCOC(=O)CC1c2[nH]c3ccccc3c2CCN1S(=O)(=O)c1ccc(C)cc1` (stereo unspecified): the IC50 with Plasmodium falciparum [13] is 13.8 µM.

Regarding `COC(=O)C1Cc2c([nH]c3ccccc23)C(Cc2c[nH]c3ccccc23)N1` (stereo unspecified), in the series on Plasmodium falciparum [10], the half-inhibitory concentration (IC50) stood at 17.2 µM.

In the series with Plasmodium falciparum [12], `CC(C)(C)OC(=O)n1c2c(c3ccccc31)CCN(C(=O)OCc1ccccc1)C2CCO` (stereo unspecified) came in with an IC50 of 21.4 µM.

In the series on Plasmodium falciparum [12], `CC#CCN1CCc2c(n(C(=O)OC(C)(C)C)c3ccccc23)C1CC(=O)OCC` (stereo unspecified) had a half-maximal inhibitory concentration (IC50) of 29.8 µM.

Take `C[C@H]1Cc2c([nH]c3cc(Cl)c(F)cc23)[C@@]2(N1)C(=O)Nc1ccc(Cl)cc12` [CIPARGAMIN]: the IC50 in the series with Plasmodium falciparum [14] was determined as 0.0005 µM.

As for `O=C(c1c[nH]c2ccc(O)cc12)c1nccc2c1[nH]c1ccc(O)cc12` [HYRTIOSULAWESINE], the IC50 in the series with Plasmodium falciparum [10] turned out to be 1.3 µM.
